Values belong to the molecule of their own block, whether it stands above or below them. Where a SMILES comes first, the peptide text is derived from it. The star is where a group is joined. Cbz = O=C(OCc1ccccc1)*; CH2F = FC*
Key:
Fas receptor = assay: Fas/CD95 cell surface expression in p53 mutant H630 cell line (Example 11); assay type: cell-based; settings: 48 hours; 5-FU 5 μM, CPT-11 5 μM, Oxaliplatin 1 μM
Experimental: (§1) Where flow cytometric analysis was employed in Examples 1 to 5, the following protocol was used. Cells were seeded at 1×10^5 per well of a 6-well tissue culture plate. […] DNA content of harvested cells was evaluated after propidium iodide staining of cells using the EPICS XL Flow Cytometer (Coulter, Miami, Fla.). Where flow cytometric analysis was employed in Examples 6 to 12, the following protocol was used. Cells were seeded at 1×10^5 per well of a 6-well tissue culture plate. […] DNA content of harvested cells was evaluated after propidium iodide staining of cells using the EPICS XL Flow Cytometer (Coulter). A FITC-conjugated monoclonal anti-human Fas antibody (DAKO) was used to determine cell surface expression of the receptor. Cells were collected and washed twice in PBS before incubating in the antibody (1/20 dilution) at 4° C. for 30 mins. A non-reactive FITC-conjugated mouse IgG1 antibody was used as a negative control for each sample. Following incubation the cells were washed twice with PBS containing 2% bovine serum albumin and fixed in 0.3 mL 4% paraformaldehyde. Samples were then analysed on the EPICS XL Flow Cytometer (Coulter).

Fas/CD95 receptor [1] = assay: Flow cytometry of Fas/CD95 cell surface expression, HCT116 p53 wild-type; assay type: cell-based, human; settings: 24 hours
Experimental: as §1

Fas [2] = assay: Western blot of Fas expression in HCT116 p53 wild-type cells; assay type: cell-based, human; settings: for induction of Fas/CD95 protein: 5-FU 5 μM, CPT-11 5 μM, Oxaliplatin 1 μM for 48 hours; for Fas expression: RTX after 72 hours, MTA data not shown
Experimental: (§2) Western Blotting. Western blots were performed as previously described (6). The Fas/CD95, Bc1-2 and BID (Santa Cruz Biotechnology, Santa Cruz, Calif.), caspase 8 (Oncogene Research Products, Darmstadt, Germany), p53 (Santa Cruz Biotechnology), and PARP (Pharmingen, BD Biosciences, Oxford, England) mouse monoclonal antibodies were used in conjunction with a horseradish peroxidase (HRP)-conjugated sheep anti-mouse secondary antibody (Amersham, Little Chalfont, Buckinghamshire, England). FasL rabbit polyclonal antibody (Santa Cruz Biotechnology) was used in conjunction with an HRP-conjugated donkey anti-rabbit secondary antibody (Amersham). TS sheep monoclonal primary antibody (Rockland, Gilbertsville, Pa.) was used in conjunction with an HRP-conjugated donkey anti-sheep secondary antibody (Serotech, Oxford, England). Equal loading was assessed using a β-tubulin mouse monoclonal primary antibody (Sigma).

HCT116p53^−/− cells = assay: MTT cell viability assay in HCT116 p53 null cells; assay type: cell-based, human; settings: range of drug concentrations 24 hours, then CH-11 200 ng/ml for 48 hours
Experimental: (§4) Cell Viability Assays. Cell viability was assessed by MTT (3-(4,5-dimethylthiazol-2-yl)-2,5-diphenyltetrazolium bromide, Sigma) assay (12). […] MTT (0.5 mg/ml) was then added to each well and the cells incubated at 37° C. for a further 3 hours. The culture medium was removed and formazan crystals reabsorbed in 200 μL DMSO. Cell viability was determined by reading the absorbance of each well at 570 nm using a 96-well microplate reader (Molecular Devices, Wokingham, England). […] Twenty microlitres (20 μL) MTT (5 mg/ml) was then added to each well and the cells incubated at 37° C. for a further 3 hours. The culture medium was removed and formazan crystals reabsorbed in 200 μL DMSO. Cell viability was determined by reading the absorbance of each well at 570 nm using an ELISA plate reader (Molecular Devices).
(§5) Statistical Analyses. The nature of the interaction between the chemotherapeutic drugs and CH-11 was determined by calculating the R index (RI), which was initially described by Kern and later modified by Romaneli (13, 14). […] Synergism is then defined as an RI of greater than unity. […] To further assess the statistical significance of the interactions, the inventors designed a univariate ANOVA analysis using the SPSS software package. This was an additive model based on the null hypothesis that there was no interaction between the drugs.

Fas/CD95 mRNA [3] = assay: Real-time PCR of Fas/CD95 mRNA in HCT116 p53 null cells; assay type: cell-based, human; settings: IC60 72hrs doses, 24 and 48 hours
Experimental: (§3) Real-time PCR was performed using a DNA Engine Opticon 2 (MJ Research Incorporated). TheDyNAmo SYBR Green qPCR kit (Finnzymes) was used as the fluoresent dye specific for double-stranded DNA. PCR conditions consisted of an initial denaturation step of 95° C. for 10 minutes, followed by 39 cycles of 94° C. for 10 secs, 55° C. for 20 secs and 72° C. for 20 secs, with a final extension of 72° C. for 10 minutes. A melting curve was included at the end of each run to check the specificity of the amplified product. Experiments were performed in triplicate to ensure reproducibility of the technique. On completion of the run the PCR products were run put on a 2% ethidium bromide agarose gel to confirm that their size matched that of the expected amplicon. Primer sequences were as follows: Fas (Forward) […], Fas (Reverse) […], 18S (Forward) […], 18S (Reverse) […].

HCT116p53^+/+ cells = assay: MTT cell viability assay in HCT116 p53 wild-type cells; assay type: cell-based, human; settings: for interaction with CH-11 in MTT assay: range of drug concentrations 24 hours, then CH-11 200 ng/ml for 48 hours
Experimental: as §4, §5

MCF-7 cells [4] = assay: MTT cell viability assay in MCF-7 cells; assay type: cell-based
Experimental: as §4, §5

Fas [5] = assay: Western blot of Fas expression in M7TS90 cells; assay type: cell-based; settings: 10 μM 5-FU, 100 nM RTX or 1 μM MTA for 72 hours
Experimental: as §2

Fas [6] = assay: Western blot of Fas expression in RKO cells; assay type: cell-based; settings: 48 hours post-treatment; MTA data not shown
Experimental: as §2

HCT116 p53 null cells = assay: Propidium iodide flow cytometry, HCT116 p53 null; assay type: cell-based, human; settings: drug 24 hours followed by CH-11 50 ng/ml 24 hours
Experimental: as §1, with “Cells” for “Where flow cytometric analysis was employed in Examples 1 to 5, the following protocol was used. Cells”, “Where flow cytometric analysis was employed in Examples 6 to 12, the following protocol was used.” left out

Fas/CD95 receptor [7] = assay: Flow cytometry of Fas/CD95 cell surface expression, HCT116 p53 null; assay type: cell-based, human; settings: 24 hours
Experimental: as §1, with “Cells” for “Where flow cytometric analysis was employed in Examples 1 to 5, the following protocol was used. Cells”, “Where flow cytometric analysis was employed in Examples 6 to 12, the following protocol was used.” left out

Fas/CD95 mRNA [8] = assay: Real-time PCR of Fas/CD95 mRNA in HCT116 p53 wild-type cells; assay type: cell-based, human; settings: IC60 72hrs doses
Experimental: as §3

procaspase 8, PARP [9] = assay: Western blot of procaspase 8 and PARP in M7TS90-E6 cells; assay type: cell-based; settings: p53 null; 5-FU 10 μM, RTX 100 nM, MTA 1 μM, CH-11 250 ng/ml; drugs alone data not shown
Experimental: as §2

Fas [10] = assay: Western blot of Fas expression in M7TS90-E6 cells; assay type: cell-based; settings: 10 μM 5-FU, 100 nM RTX or 1 μM MTA
Experimental: as §2

Fas [11] = assay: Western blot of Fas expression in MCF-7 cells; assay type: cell-based
Experimental: as §2

Fas [12] = assay: Western blot of Fas expression in H630 cells; assay type: cell-based; settings: range of concentrations, 48 hours
Experimental: as §2

procaspase 8, BID, PARP = assay: Western blot of procaspase 8, BID and PARP in MCF-7 cells; assay type: cell-based
Experimental: as §2

M7TS90-E6 cells = assay: Flow cytometry sub-G1/G0 apoptotic fraction, M7TS90-E6; assay type: cell-based; settings: 96 hours after drug treatment; RTX 100 nM, MTA 1 μM, 5-FU 10 μM
Experimental: as §1

MCF-7 cells [13] = assay: Flow cytometry of propidium iodide stained cells, sub-G1/G0 apoptotic fraction, MCF-7; assay type: cell-based; settings: 25 nM RTX 72 hours, 250 ng/ml CH-11 24 hours; untreated control ~11%
Experimental: as §1

FasL = assay: Western blot of FasL expression in MCF-7 cells; assay type: cell-based; settings: IC60 doses, 72 hours
Experimental: as §2

RKO cells = assay: MTT cell viability assay in RKO cells; assay type: cell-based; settings: data not shown
H630 cells = assay: MTT cell viability assay in p53 mutant H630 cells; assay type: cell-based; settings: drug 24 hours, then CH-11 for 48 hours (Example 11)
Experimental: as §4, §5

procaspase 8, PARP [14] = assay: Western blot of procaspase 8 and PARP in HCT116 p53 null cells; assay type: cell-based, human; settings: IC60 dose 24 hours followed by CH-11 200 ng/ml 24 hours
Experimental: as §2

Fas [15] = assay: Western blot of Fas expression in HCT116 p53 null cells; assay type: cell-based, human; settings: CPT-11 5 μM, 48 hours
Experimental: as §2

Compound: O=C1[O][Pt]2([NH][C@@H]3CCCC[C@H]3[NH]2)[O]C1=O [Oxaliplatin]
induction of the Fas receptor (Fas receptor): Neither 5-FU nor Oxaliplatin treatment for 48 hours caused significant upregulation | induction of Fas/CD95 receptor cell surface expression (Fas/CD95 receptor [1]): significantly induce expression | induction of Fas/CD95 protein (Fas [2]): significant induction | interaction with CH-11 in MTT assay (HCT116p53^−/− cells): no synergistic interaction | maximum induction of Fas mRNA (Fas/CD95 mRNA [3]): no induction | interaction with CH-11 in MTT assay (HCT116p53^+/+ cells): significant synergy

Compound: Cc1nc2ccc(CN(C)c3ccc(C(=O)N[C@@H](CCC(=O)O)C(=O)O)s3)cc2c(=O)[nH]1 [RTX, ralitrexed]
IC60 dose (MCF-7 cells [4]; MCF-7): 25 nM | effect of TS induction on drug-mediated up-regulation of Fas (Fas [5]): abrogated | Fas expression (Fas [6]): dramatic Fas up-regulation | interaction with CH-11 by propidium iodide staining (HCT116 p53 null cells): to a lesser extent | induction of Fas/CD95 receptor cell surface expression (Fas/CD95 receptor [7]): induction of the Fas/CD95 receptor | induction of Fas mRNA expression (Fas/CD95 mRNA [8]; 24 and 48 hours): significant induction | Fas expression (Fas [2]): dramatically increased | PARP cleavage / processing (procaspase 8, PARP [9]): processed | Fas up-regulation (Fas [10]): did not result in Fas up-regulation | Fas protein up-regulation (Fas [11]; 72 hours, IC60 dose (5 μM 5-FU, 25 nM RTX)): ~7 fold | Fas expression (Fas [12]): not significantly altered | activation of caspase 8 and BID (processing of procaspase 8 and full-length BID), words (procaspase 8, BID, PARP; 5 μM 5-FU or 25 nM RTX 72 hours, CH-11 250 ng/ml 24 hours): neither caspase 8, nor its substrate BID were activated | induction of apoptosis by drug alone (M7TS90-E6 cells): ~8 fold | cells in the sub-G1/G0 apoptotic phase (MCF-7 cells [13]): ~16% | FasL expression (FasL): unaffected | interaction with CH-11 in MTT assay (HCT116p53^+/+ cells): significant synergy

Compound: Nc1nc2[nH]cc(CCc3ccc(C(=O)N[C@@H](CCC(=O)O)C(=O)O)cc3)c2c(=O)[nH]1 [MTA, pemetrexed]
interaction with CH-11 to decrease cell viability (MCF-7 cells [4]; data not shown): synergistically interacted | effect of TS induction on drug-mediated up-regulation of Fas (Fas [5]): abrogated | Fas expression (Fas [6]): up-regulated | Fas expression (Fas [2]): up-regulated | interaction with CH-11 to decrease cell viability (RKO cells): synergistically interacted | PARP cleavage / processing (procaspase 8, PARP [9]): processed | Fas up-regulation (Fas [10]): did not result in Fas up-regulation | Fas expression (Fas [11]; MTA data not shown, CH-11 alone 250 ng/ml, 5-FU alone 5 μM): up-regulated | induction of apoptosis by drug alone (M7TS90-E6 cells): ~6 fold | interaction with CH-11 to decrease cell viability (HCT116p53^+/+ cells; data not shown): synergistically interacted

effect on PARP cleavage in 5-FU/CH-11 co-treated cells (procaspase 8, BID, PARP; 10 μM IETD-fmk, 24 hours): inhibited PARP cleavage | effect on processing of procaspase 8 in cells co-treated with 5-FU and CH-11 (procaspase 8, BID, PARP; 10 μM IETD-fmk, 24 hours): blocked processing of procaspase 8
Compound: CC[C@H](C)[C@H](NC(=O)OCc1ccccc1)C(=O)N[C@@H](CCC(=O)OC)C(=O)N[C@H](C(=O)N[C@@H](CC(=O)OC)C(=O)CF)[C@@H](C)O [IETD-fmk] (Cbz-IE(OMe)TD(OMe)-CH2F)

fold induction of Fas mRNA (Fas/CD95 mRNA [8]; 24 hours): 7.0 fold | fold induction of Fas mRNA (Fas/CD95 mRNA [8]; 48 hours): 2.5 fold
Compound: CCc1c2c(nc3ccc(OC(=O)N4CCC(N5CCCCC5)CC4)cc13)-c1cc3c(c(=O)n1C2)COC(=O)[C@]3(O)CC [CPT-11, Irinotecan]
interaction with CH-11 in MTT assay (H630 cells): significant synergy | induction of the Fas receptor (Fas receptor): Induction of the Fas receptor | interaction with CH-11 by propidium iodide staining (HCT116 p53 null cells): significant synergy | induction of Fas/CD95 receptor cell surface expression (Fas/CD95 receptor [7]): induction of the Fas/CD95 receptor | induction of Fas/CD95 protein (Fas [2]): significant induction | PARP cleavage and procaspase 8 activation following the addition of CH-11 (procaspase 8, PARP [14]): PARP cleavage and procaspase 8 activation | induction of Fas/CD95 protein (Fas [15]): induction of Fas/CD95 protein | maximum induction of Fas mRNA (Fas/CD95 mRNA [3]): 1.9 fold | interaction with CH-11 in MTT assay (HCT116p53^+/+ cells): significant synergy

Reference: patent publication US20070286867A1, “Combination Therapy” (Fusion Antibodies Limited, priority 2003, published 2007)
